What all share (assay type): biochemical
The test system of one experiment is LCE. Briefly: LCE assay: cleavage of [14C]-AZT-DMDOPE/AZT-DMDOPE to DMDOP by fractions of human blood cells. To be noted: for Spezifische Aktivität: n = 4; for spezifische LCE-Aktivität / AZT-DMDOPE-spaltende Aktivität (spezifische Aktivität des LCE): n = 6; for Km / vmax: membrane fraction 0.068 mg/Ansatz. On the procedure:
Das Pipettierschema ist in der folgenden Tabelle angegeben. Tabelle
Zur Untersuchung der enzymatischen Spaltung in Abhängigkeit von der Substratkonzentration wurde eine Substratstammlösung von 0.98 nmol [^14C]-AZT-DMDOPE und 0.7 nmol AZT-DMDOPE/80 µl Aqua bidest. im LCE-Assay angesetzt. Die verschiedenen Substratkonzentrationen im LCE-Assay wurden durch kontinuierliche Verdopplung bzw. Halbierung des Volumens an Substratlösung eingestellt. Die Ansätze wurden in Glasröhrchen (5 ml) vorgelegt und durch Zugabe der Substratlösung gestartet. Die Inkubation wurde bei 37 °C im Wasserbad unter leichtem Schütteln durchgeführt.
Die Reaktionsansätze des LCE-Assays wurden nach entsprechender Inkubationszeit dem Wasserbad entnommen, und die Reaktion durch Zugabe von 750 µl 2-Propanol gestoppt. Nach gründlicher Durchmischung wurden die Ansätze anschließend mit 700 µl auf Raumtemperatur erwärmtem n-Heptan versetzt. Die Ansätze wurden erneut für 30 sec gut gemischt und zur Beschleunigung der Phasentrennung in der Minifuge T bei 3200 rpm für 15 min bei Raumtemperatur zentrifugiert. Anschließend wurden 500 µl der oberen Phase (n-Heptan) entnommen und in neue Glasröhrchen (5 ml) mit 10 mg Kieselgel 60 H und 200 µl n-Heptan überführt. Die Ansätze wurden für 30 sec gut durchmischt und zur Sedimentation des Kieselgels für 10 min unter oben genannten Bedingungen zentrifugiert. Vom Überstand wurden anschließend 500 µl entnommen und mit 3 ml Szintillationsflüssigkeit versetzt. Die Messung der Radioaktivität erfolgte für 4 min im Flüssigkeits-Szintillations-Analysator. Zur Bestimmung des Absolutwertes an Radioaktivität wurden 200 µl der Substratlösung mit 3 ml Szintillationsflüssigkeit versetzt und unter gleichen Bedingungen im Flüssigkeits-Szintillations-Analysator gemessen.
Für diese Untersuchungen ist ein Enzym-Assay etabliert, in dem AZT-DMDOPE und [^14C]-AZT-DMDOPE als Substrat eingesetzt wurde (Beispiel 6). […] Bei substratabhängigen Umsetzungen wurde eine Stammlösung von 0.98 nmol [^14C]-AZT-DMDOPE und 0.7 nmol AZT-DMDOPE /80 µl eingesetzt. Die verschiedenen Substratkonzentrationen wurden anschließend durch kontinuierliche Verdopplung bzw. Halbierung des Volumens an Substratlösung eingestellt.
Die Quantifizierung der enzymatischen Spaltung von AZT-DMDOPE wurde durch eine zweistufge Extraktion des Metaboliten DMDOP mit n-Heptan und anschließender Adsorption von Resten des Substrates AZT-DMDOPE an Kieselgel 60 H durchgeführt. Hierbei wurden die Reaktionsansätze mit 2-Propanol und n-Heptan versetzt. wobei sich das im Vergleich zum Substrat unpolare DMDOP in der n-Heptan-Phase anreichert. Die n-Heptan-Phase wurde dann mit Kieselgel 60 H versetzt, wobei Reste des Substrates AZT-DMDOPE adsorbiert werden. Die n-Heptan-Phase wurde anschließend durch Zentrifugation vom Kieselgel separiert, in 3 ml Aqua luma überführt und die in ihr enthaltene Menge an radioaktiv markiertem DMDOP im Flüssigkeits-Szintillations-Analysator über einen Zeitraum von 5 min bestimmt. Aus diesen Ergebnissen konnte die prozentuale Umsetzung des Substrates AZT-DMDOPE zu DMDOP und die spezifische Aktivität des LCE errechnet werden. Als spezifische Aktivität wurde hierbei die Menge an DMDOP bezeichnet die pro 1 mg Protein der eingesetzten Zellpräparationen pro Minute gebildet wurde.
Nach Bestimmung der Proteinkonzentration in Zellhomogenaten, Zytosol- und Membranfraktionen mit Hilfe des Bicinchoninsäure(BCS)-Tests wurden 0.025 - 0.20 mg Protein/Ansatz eingesetzt.
Zur Isolierung der Plasmamembranen wurden 2 ml einer Zellsuspension stimulierter humaner PBL mit einer Zelldichte von 2.5 x 10^8 Zellen/ml durch dreimaliges Einfrieren und Auftauen aufgeschlossen und durch Zentrifugation im Percoll-Dichtegradienten fraktioniert.

Experiment [1] has as its target T1, Phospholipase C aus Bacillus cereus (Bacillus cereus, UniProt P09598).
T1 construct: purchased Boehringer Mannheim GmbH
Description: Enzymatic cleavage of AZT-DMDOPE, detection of cleavage products by thin-layer chromatography. To be noted: 10 mg AZT-DMDOPE in 0,1 M Tris, 0,1 mg enzyme, 15 h + 6 h at 37 °C. The protocol:
(§1) 10 mg (3'-Desoxy-3'-azidothymidin)-5'-phosphorsäure-(3-dodecyl-mercapto-2-decyl-oxy)-propylester (AZT-DMDOPE) werden in 0,5 ml 0,1 M Tris-Pufferlösung suspendiert und nach Zugabe des Enzyms (0,5 mg bei Phosphodiesterase und 0,1 mg bei Phospholipase/Nuclease) 15 Stunden bei 37 °C inkubiert. Anschließend wird die Lösung dünnschichtchromatographisch untersucht. Nach Zugabe von 5 Tropfen gesättigter NaHCO3-Lösung wurde weitere 6 Stunden bei 37 °C inkubiert und anschließend die Lösung dünnschichtchromatographisch untersucht.
(§2) Durch Dünnschichtchromatographie mit verschiedenen Elutionsmitteln wurde die Lösung hinsichtlich der Bildung der möglichen Spaltprodukte (AZT, AZT-monophosphat, DMDOP und Lipidmonophosphat) untersucht.
(§3) • a) Phospholipase C aus Bacillus cereus, 2000 U/0,5 ml, Boehringer Mannheim GmbH • b) Phospholipase D, Typ I, aus Kohl, 150 - 300 U/mg, Sigma • c) Phosphodiesterase aus Kalbsmilz, 2 U/mg, Boehringer Mannheim GmbH • d) Phosphodiesterase aus Schlangengift, Boehringer Mannheim GmbH • e) Nuclease aus Staphylococcus aureus, 15 000 U/mg, Boehringer Mannheim GmbH • f) LCE (Lipid-Cleavage-Enzyme)

Experiment [2] relates to Phospholipase D, Typ I, aus Kohl. The description is as above. The conditions noted are these: 10 mg AZT-DMDOPE in 0,1 M Tris, 0,1 mg enzyme, 15 h + 6 h at 37 °C; at the height of the lipid phosphate. The protocol: as §1, §2, §3
Experiment [3] addresses T2, Nuclease aus Staphylococcus aureus (Staphylococcus aureus, UniProt P00644).
T2 construct: purchased Boehringer Mannheim GmbH
Described as above. The conditions noted are these: 10 mg AZT-DMDOPE in 0,1 M Tris, 0,1 mg enzyme, 15 h + 6 h at 37 °C. On the procedure:
as §1, §2, §3

The test system of experiment [4] is Phosphodiesterase aus Kalbsmilz. The experiment is described as above. The conditions noted are these: 10 mg AZT-DMDOPE in 0,1 M Tris, 0,5 mg enzyme, 15 h + 6 h at 37 °C. The protocol:
as §1, §2, §3

Experiment [5] relates to LCE (Lipid-Cleavage-Enzyme). The experiment is described as above. The conditions noted are these: 10 mg AZT-DMDOPE in 0,1 M Tris, 15 h + 6 h at 37 °C. The protocol: as §1, §2, §3
The mark [6] stands for this setting: humane Monozyten/Makrophagen (stimulierte Monozyten), 37 °C, 2 h.
Setting [7] is: nichtstimulierte humane PBL, 37 °C, 2 h.
The mark [8] stands for this setting: stimulierte humane PBL, 37 °C, 2 h.

SMILES strings stand for the structures. Values joined by “and” are separate entries in the source; they are usually repeats but may differ in a detail not shown here. Equal entries are not always repeated.

T1 sequence (P09598 39-283 limits assumed): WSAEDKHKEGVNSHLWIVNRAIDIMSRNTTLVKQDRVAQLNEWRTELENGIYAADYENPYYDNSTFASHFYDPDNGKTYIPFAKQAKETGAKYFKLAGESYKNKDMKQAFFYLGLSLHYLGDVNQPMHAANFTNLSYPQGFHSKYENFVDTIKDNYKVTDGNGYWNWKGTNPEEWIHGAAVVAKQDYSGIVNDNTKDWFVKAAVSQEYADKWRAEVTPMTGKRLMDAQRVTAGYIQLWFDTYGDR

In general, Km refers to the concentration of substrate that gives half-maximal velocity. For the compound `CCCCCCCCCCCCSCC(COP(=O)(O)OC[C@H]1O[C@@H](n2cc(C)c(=O)[nH]c2=O)C[C@@H]1N=[N+]=[N-])OCCCCCCCCCC` (stereo partly drawn) [AZT-DMDOPE, (3'-Desoxy-3'-azidothymidin)-5'-phosphorsäure-(3-dodecyl-mercapto-2-decyloxy)-propylester], in the experiment with LCE (Fraktion 8 (plasma membrane enriched) of Percoll gradient, stimulierte humane PBL, 0.05 mg protein/Ansatz, 37 °C, 2 h), the “höchste spezifische LCE-Aktivität” value amounted to 4.40 pmol mg^-1 min^-1 min. For the same compound, the “Spezifische Aktivität” value was 3.2 + 0.60 pmol mg^-1 min^-1 with LCE (Membranfraktion humaner Monozyten isolated in hypertonic density gradient, linear range) and 8.8 ± 0.26 pmol/mg/min with LCE (Membranfraktion humaner Monozyten/Makrophagen (stimulated by adherence)). Further, the “spezifische LCE-Aktivität” value with LCE (Membranfraktion nichtstimulierter humaner PBL, calculated from linear range) is 1.45 ± 0.32 pmol/mg/min; with LCE (Membranfraktionen stimulierter humaner PBL, 2 h 37 °C) it was 14.23 ± 0.70 pmol/mg/min and 14.23 ± 0.7 pmol/mg/min. The “AZT-DMDOPE-spaltende Aktivität (spezifische Aktivität des LCE)” value in the experiment on LCE (Zellhomogenate stimulierter humaner PBL, 2 h 37 °C) stood at 6.48 ± 0.38 pmol/mg/min; with LCE (Zytosolfraktionen stimulierter humaner PBL, 2 h 37 °C), 1.65 ± 0.40 pmol/mg/min. The “spezifische Aktivitäten” value in the experiment on LCE (all further fractions of Percoll gradient, stimulierte humane PBL, 0.05 mg protein/Ansatz, 37 °C, 2 h) lay in the range of 1.10 to 1.90 pmol/mg/min. In addition, the Km with LCE (humane Monozyten, 37 °C, 2 h) is 12.1 ± 4.13 µM; with LCE (setting [6]) it was 4.63 ± 0.45 µM; with LCE (setting [7]), 5.51 ± 0.99 µM; in the experiment on LCE (setting [8]) it was 2.26 ± 0.16 µM. Besides, the vmax in the experiment on LCE (humane Monozyten, 37 °C, 2 h) amounted to 1.61 ± 0.37 pmol/mg/min; with LCE (setting [6]) it was 9.09 ± 0.44 pmol/mg/min; with LCE (setting [7]), 2.03 ± 0.19 pmol/mg/min; in the experiment with LCE (setting [8]), 15.29 ± 0.37 pmol/mg/min. The “Fluoreszenzauslöschung DC” value was “negativ” in experiment [1]; “schwach” in experiment [2]; “negativ” in experiment [3]; “negativ” in experiment [4]; “positiv” in experiment [5].

(Values after patent publication EP0791056B1, “LIPID-CLEAVAGE ENZYME COMPLEX” (priority 1994, dated 1996).)
